Molecular target: T1, ferroportin (Fpn) (Mus musculus, UniProt Q9JHI9)
T1 construct: endogenous in cells; host or cells: J774 mouse macrophage cell line, induced with Fe(III)NTA
T1 sequence (Q9JHI9 1-570): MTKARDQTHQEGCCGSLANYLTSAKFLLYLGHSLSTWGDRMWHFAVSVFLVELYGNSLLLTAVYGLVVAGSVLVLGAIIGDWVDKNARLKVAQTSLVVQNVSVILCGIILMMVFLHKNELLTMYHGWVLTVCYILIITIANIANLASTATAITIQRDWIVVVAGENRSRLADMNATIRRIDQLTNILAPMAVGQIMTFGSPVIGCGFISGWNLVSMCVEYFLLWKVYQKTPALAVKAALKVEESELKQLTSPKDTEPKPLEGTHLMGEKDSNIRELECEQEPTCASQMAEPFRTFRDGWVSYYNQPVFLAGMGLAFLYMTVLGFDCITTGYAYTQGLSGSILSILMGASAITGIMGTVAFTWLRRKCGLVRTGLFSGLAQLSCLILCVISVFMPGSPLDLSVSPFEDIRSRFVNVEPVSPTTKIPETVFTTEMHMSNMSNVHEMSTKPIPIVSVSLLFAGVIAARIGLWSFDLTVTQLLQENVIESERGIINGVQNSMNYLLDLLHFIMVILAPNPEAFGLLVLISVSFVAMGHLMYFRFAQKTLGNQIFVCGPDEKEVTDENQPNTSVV
Experiment: Hepcidin Internalization Assay (J774)
Assay type: cell-based
Conditions: Average (AVE) IC50 of multiple measurements; inhibition of TMR-hepcidin (25 nM) internalization into J774 cells
Description: This cellular assay allows quantification of the binding of hepcidin to ferroportin (Fpn) through microscopic detection of internalization of a fluorescently labeled hepcidin into J774 cells. […] Binding of hepcidin to Fpn triggers internalization and degradation of both hepcidin and Fpn. […] Therefore, microscopic detection of cell-associated TMR fluorescence is a measure of hepcidin binding to Fpn and internalization of hepcidin and Fpn. If TMR-hepcidin is prevented from binding to Fpn, cellular TMR fluorescence remains low (Durrenberger et al, 2013). The effect of small molecular weight Fpn inhibitor compounds in this assay was evaluated in vitro as described below. […] After removal of the paraformaldehyde solution, cells were washed 3 times with PBS leaving 100 μl per well and the plates were sealed with foil plate seal. TMR (530-550 nm excitation/575-625 nm emission/400 ms exposure time) and Hoechst 33342 (360-370 nm excitation/420-460 nm emission /10 ms exposure time) fluorescence images were acquired using a […] imager (Olympus) with a 20× high NA objective. […] The acquired image data was analysed with the […] analysis software. […] IC50 values were calculated with the Sum(Mean) raw data using “log(inhibitor) vs. response” curve fitting of Prism 5 software (GraphPad Software Inc., version 5.02). For each data set the fit of the “log(inhibitor) vs. response (three parameters)” model was compared to the fit of the “log(inhibitor) vs. response - Variable slope (four parameters)” model and the IC50 data of the preferred model was used.

Question: For `COCCn1c(CCNCCc2nc(C(=O)NCc3ncccc3F)co2)nc2ccccc21` [Example 1, N-((3-fluoropyridin-2-yl)methyl)-2-(2-((2-(1-(2-methoxyethyl)-1 H-benzo[d]imidazol-2-yl)ethyl)amino)ethyl)oxazole-4-carboxamide], which IC50 is on record?
Answer: 4 nM

Question: For `CCCCn1c(CCNCCc2nc(C(=O)NCc3ncccc3F)co2)nc2ccccc21` [Example 2, 2-(2-((2-(1-butyl-1 H-benzo[d]imidazol-2-yl)ethyl)amino)ethyl)-N-((3-fluoropyridin-2-yl)methyl)oxazole-4-carboxamide], which IC50 is on record?
Answer: 1 nM

Question: `O=C(NCc1ncccc1F)c1coc(CCNCCc2nc3ccccc3n2Cc2ccccn2)n1` [Example 3, N-((3-fluoropyridin-2-yl)methyl)-2-(2-((2-(1-(pyridin-2-ylmethyl)-1H-benzo[d]imidazol-2-yl)ethyl)amino)ethyl)oxazole-4-carboxamide] was tested. Which IC50 did it give?
Answer: 2 nM

Question: For `Cn1c(CCNCCc2nc(C(=O)NCc3ncccc3F)co2)nc2ccccc21` [Example 5, N-((3-fluoropyridin-2-yl)methyl)-2-(2-((2-(1-methyl-1 H-benzo[d]imidazol-2-yl)ethyl)amino)ethyl)oxazole-4-carboxamide], which IC50 is on record?
Answer: 7 nM

Question: How did the IC50 turn out when `CCn1c(CCNCCc2nc(C(=O)NCc3ncccc3F)co2)nc2ccccc21` [Example 6, 2-(2-((2-(1-ethyl-1 H-benzo[d]imidazol-2-yl)ethyl)amino)ethyl)-N-((3-fluoropyridin-2-yl)methyl)oxazole-4-carboxamide] was run?
Answer: 3.6 nM

Question: How did the IC50 turn out when `CC(C)Cn1c(CCNCCc2nc(C(=O)NCc3ncccc3F)co2)nc2ccccc21` [Example 8, N-((3-fluoropyridin-2-yl)methyl)-2-(2-((2-(1-isobutyl-1 H-benzo[d]imidazol-2-yl)ethyl)amino)ethyl)oxazole-4-carboxamide] was run?
Answer: 1.2 nM

Question: For `CCCCn1c(CCNCCc2nc(C(=O)NCc3ncccc3Cl)co2)nc2ccccc21` [Example 9, 2-(2-((2-(1-butyl-1 H-benzo[d]imidazol-2-yl)ethyl)amino)ethyl)-N-((3-chloropyridin-2-yl)methyl)oxazole-4-carboxamide], which IC50 is on record?
Answer: 1 nM

Question: Which IC50 does the source give for `CCCCn1c(CCNCCc2nc(C(=O)NCc3ccccn3)co2)nc2ccccc21` [Example 11, 2-(2-((2-(1-butyl-1 H-benzo[d]imidazol-2-yl)ethyl)amino)ethyl)-N-(pyridin-2-ylmethyl)oxazole-4-carboxamide] here?
Answer: 2 nM

Question: How did the IC50 turn out when `O=C(O)Cn1c(CCNCCc2nc(C(=O)NCc3ncccc3F)co2)nc2ccccc21` [Example 14, 2-(2-(2-((2-(4-(((3-fluoropyridin-2-yl)methyl)carbamoyl)oxazol-2-yl)ethyl)amino)ethyl)-1H-benzo[d]imidazol-1-yl)acetic acid] was run?
Answer: 126 nM

Question: With `CNC(=O)Cn1c(CCNCCc2nc(C(=O)NCc3ncccc3F)co2)nc2ccccc21` [Example 15, N-((3-fluoropyridin-2-yl)methyl)-2-(2-((2-(1-(2-(methylamino)-2-oxoethyl)-1 H-benzo[d]imidazol-2-yl)ethyl)amino)ethyl)oxazole-4-carboxamide] as the compound, how does the IC50 read?
Answer: 32 nM

Question: How did the IC50 turn out when `NC(=O)Cn1c(CCNCCc2nc(C(=O)NCc3ncccc3F)co2)nc2ccccc21` [Example 16, 2-(2-((2-(1-(2-amino-2-oxoethyl)-1H-benzo[d]imidazol-2-yl)ethyl)amino)ethyl)-N-((3-fluoropyridin-2-yl)methyl)oxazole-4-carboxamide] was run?
Answer: 181 nM

Question: With `O=C(NCc1ncccc1F)c1coc(CCNCCc2nc3ccccc3n2Cc2ccccc2)n1` [Example 17, 2-(2-((2-(1-benzyl-1 H-benzo[d]imidazol-2-yl)ethyl)amino)ethyl)-N-((3-fluoropyridin-2-yl)methyl)oxazole-4-carboxamide] as the compound, how does the IC50 read?
Answer: 0.8 nM

Question: How did the IC50 turn out when `O=C(NCc1ncccc1F)c1coc(CCNCCc2nc3ccccc3n2CCC2CC2)n1` [Example 21, 2-(2-((2-(1-(2-cyclopropylethyl)-1 H-benzo[d]imidazol-2-yl)ethyl)amino)ethyl)-N-((3-fluoropyridin-2-yl)methyl)oxazole-4-carboxamide] was run?
Answer: 1 nM

Question: For `O=C(NCc1ncccc1F)c1coc(CCNCCc2nc3ccccc3n2CCc2ccccc2)n1` [Example 23, N-((3-fluoropyridin-2-yl)methyl)-2-(2-((2-(1-phenethyl-1 H-benzo[d]imidazol-2-yl)ethyl)amino)ethyl)oxazole-4-carboxamide], which IC50 is on record?
Answer: 1.9 nM

Question: For `CNC(=O)CCn1c(CCNCCc2nc(C(=O)NCc3ncccc3F)co2)nc2ccccc21` [Example 25, N-((3-fluoropyridin-2-yl)methyl)-2-(2-((2-(1-(3-(methylamino)-3-oxopropyl)-1 H-benzo[d]imidazol-2-yl)ethyl)amino)ethyl)oxazole-4-carboxamide], which IC50 is on record?
Answer: 7 nM

Question: How did the IC50 turn out when `Cc1noc(C)c1CCn1c(CCNCCc2nc(C(=O)NCc3ncccc3F)co2)nc2ccccc21` [Example 30, 2-(2-((2-(1-(2-(3,5-dimethylisoxazol-4-yl)ethyl)-1 H-benzo[d]imidazol-2-yl)ethyl)amino)ethyl)-N-((3-fluoropyridin-2-yl)methyl)oxazole-4-carboxamide] was run?
Answer: 1.3 nM

Question: With `O=C(NCc1ncccc1F)c1coc(CCNCCc2nc3ccccc3n2CCc2ncco2)n1` [Example 31, N-((3-fluoropyridin-2-yl)methyl)-2-(2-((2-(1-(2-(oxazol-2-yl)ethyl)-1 H-benzo[d]imidazol-2-yl)ethyl)amino)ethyl)oxazole-4-carboxamide] as the compound, how does the IC50 read?
Answer: 2.8 nM

Question: Which IC50 does the source give for `Cn1ccnc1CCn1c(CCNCCc2nc(C(=O)NCc3ncccc3F)co2)nc2ccccc21` [Example 34, N-((3-fluoropyridin-2-yl)methyl)-2-(2-((2-(1-(2-(1-methyl-1 H-imidazol-2-yl)ethyl)-1 H-benzo[d]imidazol-2-yl)ethyl)amino)ethyl)oxazole-4-carboxamide] here?
Answer: 7.4 nM

Question: Which IC50 does the source give for `O=C(NCc1ncccc1F)c1coc(CCNCCc2nc3ccccc3n2CCc2ccccn2)n1` [Example 35, N-((3-fluoropyridin-2-yl)methyl)-2-(2-((2-(1-(2-(pyridin-2-yl)ethyl)-1H-benzo[d]imidazol-2-yl)ethyl)amino)ethyl)oxazole-4-carboxamide] here?
Answer: 2 nM

Question: With `CCCCn1c(CCNCCc2nc(C(=O)NCc3ncccc3F)co2)nc2cc3c(cc21)OCCO3` [Example 37, 2-(2-((2-(1-butyl-6,7-dihydro-1H-[1,4]dioxino[2′,3′:4,5]benzo[1,2-d]imidazol-2-yl)ethyl)amino)ethyl)-N-((3-fluoropyridin-2-yl)methyl)oxazole-4-carboxamide] as the compound, how does the IC50 read?
Answer: 0.9 nM

Question: `CCCCn1c(CCNCCc2nc(C(=O)NCc3ncccc3F)co2)nc2cc(-c3ccccc3OC)ccc21` [Example 39, 2-(2-((2-(1-butyl-5-(2-methoxyphenyl)-1 H-benzo[d]imidazol-2-yl)ethyl)amino)ethyl)-N-((3-fluoropyridin-2-yl)methyl)oxazole-4-carboxamide] was tested. Which IC50 did it give?
Answer: 1.7 nM

Question: `CCCCn1c(CCNCCc2nc(C(=O)NCc3ncccc3F)co2)nc2ccc(-c3ccccc3OC)cc21` [Example 40, 2-(2-((2-(1-butyl-6-(2-methoxyphenyl)-1 H-benzo[d]imidazol-2-yl)ethyl)amino)ethyl)-N-((3-fluoropyridin-2-yl)methyl)oxazole-4-carboxamide] was tested. Which IC50 did it give?
Answer: 1.8 nM

Question: How did the IC50 turn out when `CCCCn1c(CCNCCc2nc(C(=O)NCc3ncccc3F)co2)nc2ccc(-c3ccccc3)cc21` [Example 41, 2-(2-((2-(1-butyl-6-phenyl-1 H-benzo[d]imidazol-2-yl)ethyl)amino)ethyl)-N-((3-fluoropyridin-2-yl)methyl)oxazole-4-carboxamide] was run?
Answer: 4 nM

Question: `CCCCn1c(CCNCCc2nc(C(=O)NCc3ncccc3F)co2)nc2cc(-c3ccccc3)ccc21` [Example 42, 2-(2-((2-(1-butyl-5-phenyl-1 H-benzo[d]imidazol-2-yl)ethyl)amino)ethyl)-N-((3-fluoropyridin-2-yl)methyl)oxazole-4-carboxamide] was tested. Which IC50 did it give?
Answer: 2.4 nM

Question: With `O=C(NCc1ncccc1F)c1coc(CCNCCc2nc3ccccc3n2CCc2nc3ccccc3[nH]2)n1` [Example 44, 2-(2-((2-(1-(2-(1H-benzo[d]imidazol-2-yl)ethyl)-1 H-benzo[d]imidazol-2-yl)ethyl)amino)ethyl)-N-((3-fluoropyridin-2-yl)methyl)oxazole-4-carboxamide] as the compound, how does the IC50 read?
Answer: 1 nM

Source: US20240343722A1 (VIFOR (INTERNATIONAL) AG, priority 2021, published 2024)
